Assay results taken from patent publication US5843941A, “Ras farnesyl transferase inhibitors” (Genentech, Inc., priority 1994, dated 1998).

Legend:
Rab GG transferase = target: T1, Rab GG transferase (Rattus norvegicus, UniProt Q08602+Q08603); assay: Inhibition of Rab GG transferase; type: biochemical; details: FIG. 1C; Rab1A substrate; read-out: IC0.5 Rab GG transferase
T1 construct: purified Components A and B of Rab GG transferase; from tissue
T1 sequence (Q08602 1-567): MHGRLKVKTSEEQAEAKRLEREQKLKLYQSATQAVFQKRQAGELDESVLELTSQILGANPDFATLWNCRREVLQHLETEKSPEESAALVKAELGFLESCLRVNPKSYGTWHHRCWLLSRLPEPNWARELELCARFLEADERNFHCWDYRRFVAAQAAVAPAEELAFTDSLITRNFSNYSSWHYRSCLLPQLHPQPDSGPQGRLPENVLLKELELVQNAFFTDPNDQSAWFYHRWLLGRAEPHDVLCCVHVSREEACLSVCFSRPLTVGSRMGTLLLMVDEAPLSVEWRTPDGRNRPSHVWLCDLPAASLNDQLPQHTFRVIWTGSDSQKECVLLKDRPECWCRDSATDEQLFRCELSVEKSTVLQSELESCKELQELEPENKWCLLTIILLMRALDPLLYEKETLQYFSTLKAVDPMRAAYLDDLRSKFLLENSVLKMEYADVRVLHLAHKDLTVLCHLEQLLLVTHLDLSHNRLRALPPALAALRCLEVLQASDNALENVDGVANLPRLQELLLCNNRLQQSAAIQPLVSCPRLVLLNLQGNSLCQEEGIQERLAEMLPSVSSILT
T1 sequence (Q08603 1-331): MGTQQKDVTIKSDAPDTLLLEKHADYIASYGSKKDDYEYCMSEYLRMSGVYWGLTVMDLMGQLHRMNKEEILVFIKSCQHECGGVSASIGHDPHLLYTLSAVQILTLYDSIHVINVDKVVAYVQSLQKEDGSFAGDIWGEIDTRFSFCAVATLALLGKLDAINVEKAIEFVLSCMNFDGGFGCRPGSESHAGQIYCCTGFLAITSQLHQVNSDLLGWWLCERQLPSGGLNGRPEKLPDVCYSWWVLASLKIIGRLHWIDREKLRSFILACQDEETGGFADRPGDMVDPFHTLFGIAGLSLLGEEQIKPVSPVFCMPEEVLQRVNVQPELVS

CAAX GG transferase = target: T2, CAAX GG transferase (Rattus norvegicus, UniProt P53610+Q04631); assay: Inhibition of CAAX GG transferase (geranylgeranyltransferase); type: biochemical
T2 construct: partially purified CAAX GG transferase; from tissue
From the text: FIG. 1 compares the inhibitory activity of compound 27B (denoted as BG269B in the figure) on protein prenyltransferases. […] Two other prenyltransferases, both of which transfer 20-carbon geranylgeranyl (GG) groups, have been identified in rat brain. One of thesse, CAAX GG transferase, attaches GG groups to proteins that terminate in CAAX sequences in which X is leucine.
The conditions used to assay the inhibition of CAAX farnesyltransferase are identical to those described above for the in vitro, assay described in Example 121. In FIG. 1B the assay mixture contained, in a final volume of 50 μl, 50 mM sodium Hepes (pH 7.2), 5 mM MgC12, 5 mM DTT, 0.3 mM Nonidet P-40, 0.2% octyl β-glucoside, 1% DMSO, 0.5 μM all trans [3H]geranylgeranyl pyrophosphate (33,000 dpm/pmol; ARC, Inc.), 5 μM recombinant p21^H-rasCVLL, 6.3 μg partially purified CAAX GG transferase (see Seabra, M. C., Reiss, Y., Casey, P. J., Brown, M. S., and Goldstein, J. L. Cell 268, 4055 (1993)) and varying concentrations of the indicated inhibitor. In FIG. 1C, the assay mixture contained in a final volume of 50 μl, 50 mM sodium Hepes (pH 7.2), 5 mM MgCl2, 5 mM DTT, 0.3 mM Nonidet P-40, 0.2% octyl β-D-glucoside, 1% DMSO, 0.5 μM all trans [3H]geranylgeranyl pyrophosphate (33,000 dpm/pmol; ARC, Inc.), 2 μM recombinant Rab1A, 2 ng each of purified Components A and B of Rab GG transferase (see Seabra, M. C., Goldstein, J. L., Sudhof, T. C., and Brown, M. S. J. Biol. Chem. 267, 14497 (1992)) and varying concentrations of the indicated inhibitor.
Each assay was carried out as described in Examples 121 and 122.

HCT-116 cells = assay: Growth inhibition of human tumor line HCT-116; type: cell-based; details: HCT-116, colon, ras transformed, read-out: % growth inhib.
Method: (§1) To examine the effects of farnesyltransferase inhibition on cell growth, three cell lines (ras-transformed rat-1, src-transformed rat-1, and parental rat-1 cells) were seeded (see FIG. 7) at low density and allowed to grow for 10 days in the absence or presence of increasing concentrations of BZA-5B (compound 37). See Example 128 for description of cells. On day 0, cells were plated in monolayer culture at 2×10^3 cells per well (24-well plates) in 1 ml DMEM supplemented with 10% fetal calf serum, 100 U/ml penicillin, 100 μg/ml streptomycin, 0.5 mM DTT, 0.025% DMSO, and the indicated concentration of BZA-5B (compound 37). On days 3 and 7, cells were washed and refed with the same medium. At the time indicated in FIG. 7, cells were harvested by trypsinization and counted in a Coulter counter. Panels A, C, E show the growth rate of each cell line in the absence of inhibitor. Panels B, D, F show the inhibition of growth as a function of concentration of BZA-5B at each time point. […]
(§2) To examine the effects of farnesyltransferase inhibition on the growth of human tumor cell lines, several such lines were treated with 25 μM BZA-5B (compound 37B) using a procedure similar to that described in Example 129 above. Cells were refed with fresh media at days 3 and 6 containing the inhibitor, and were harvested and counted as described above. […]

Hela cells = assay: Growth inhibition of human tumor line Hela; type: cell-based; details: cervix, not ras transformed, read-out: % growth inhib.
Method: as §1, §2

T2 sequence (P53610 whole entry, one chain of several): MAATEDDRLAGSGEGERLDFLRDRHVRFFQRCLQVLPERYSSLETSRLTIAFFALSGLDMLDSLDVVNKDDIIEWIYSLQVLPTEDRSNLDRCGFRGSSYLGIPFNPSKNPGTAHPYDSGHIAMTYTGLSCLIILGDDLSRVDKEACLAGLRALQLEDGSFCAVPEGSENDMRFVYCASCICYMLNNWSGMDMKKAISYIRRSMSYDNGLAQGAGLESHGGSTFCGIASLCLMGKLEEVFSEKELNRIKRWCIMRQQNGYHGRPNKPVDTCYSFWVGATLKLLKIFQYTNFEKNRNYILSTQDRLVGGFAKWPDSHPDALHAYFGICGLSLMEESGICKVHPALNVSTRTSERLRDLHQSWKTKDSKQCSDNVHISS

| Structure (SMILES) | IC50 (Rab GG transferase) [µM] | IC50 (CAAX GG transferase; FIG. 1B, p21H-rasCVLL substrate, read-out: IC0.5 CAAX GG transferase) [µM] | fold higher concentration for CAAX GG transferase than for CAAX farnesyltransferase (CAAX GG transferase; selectivity vs CAAX farnesyltransferase) | inhibition at 25 µM (HCT-116 cells) [%] | inhibition at 25 µM (Hela cells) [%] |
| --- | --- | --- | --- | --- | --- |
| CSCC[C@H](NC(=O)CN1C(=O)C(N(C)C(=O)[C@@H](N)CS)N=C(c2ccccc2)c2ccccc21)C(=O)O (single isomer, unassigned) [27B] | 5.5 | 0.035 | more than 100 fold | – | – |
| COC(=O)[C@H](CCSC)NC(=O)CN1C(=O)C(N(C)C(=O)[C@@H](N)CS)N=C(c2ccccc2)c2ccccc21 (single isomer, unassigned) [37B] | – | – | – | 0 | 0 |
